Assay results reported in US20150099721A1, “TREATING CANCER WITH HSP90 INHIBITORY COMPOUNDS” (Synta Pharmaceuticals Corp., priority 2012, published 2015).
“Also recorded” adds a separate entry of the source.

Assays:
[1] = test system: SLC34A2-ROS expressing HCC78 NSCLC cells; experiment: Cell viability (Cell Titer-Glo) in HCC78 cells; assay type: cell-based, human; conditions: for IC50: Homo sapiens, 72 hr exposure (FIG. 1A), read-out: IC50, loss of HCC78 cell viability; for cells killed by single agent: drug on its own (FIG. 1C)
Description: (§1) Human HCC78 NSCLC cells and human TPC-1 thyroid cancer cells were obtained from Dr. Steve Morris (St. Jude's) and grown in RPMI in the presence of fetal bovine serum (10%), 2 mM L-glutamine and antibiotics (100 IU/ml penicillin and 100 μg/ml streptomycin) purchased from Sigma Aldrich. Cells were maintained at 37° C., 5% CO2 atmosphere.
(§2) Cell viability was measured using the Cell Titer-Glo assay (Promega). In brief, cells were plated in 96-well plates in triplicate at optimal seeding density (determined empirically for each cell line) and incubated at 37° C., 5% CO2 atmosphere for 24 hr prior to the addition of drug or vehicle (0.3% DMSO) to the culture medium. At the end of the assay, Cell Titer-Glow was added to the wells per manufactures recommendation, shaken for two minutes and incubated for 10 minutes at room temperature. Luminescence (0.1 sec) was measured with a Victor II microplate reader (Perkin Elmer) and the resulting data were used to calculate cell viability, normalized to vehicle control.
(§3) Chromosomal rearrangements involving ROS kinase have been reported in several tumor types, including non-small cell lung cancer (NSCLC) and glioblastoma. […] See, e.g., Ting-Lei Gu et al, PLoS One. 2011; 6(1):e15640. To determine if inhibition of Hsp90 affects the activity of ROS fusion kinases and viability of cells driven by such fusions, SLC34A2-ROS expressing HCC78 NSCLC cells were treated with ganetespib and both viability and protein activity was assessed. […] See, e.g., Chenguang Li et al, PLoS One. 2011; 6(11):e28204. […] To determine if ganetespib affects the constitutive activity of ROS, HCC78 cells were treated with ganetespib for 24 hr and the phosphorylation of ROS was assayed by Western blot. […] In addition to SLC34A2-ROS, other ROS chimeras have been identified including CD74-ROS and FIG-ROS. Show in FIG. 1D, Ba/F3 cells stably expressing either CD74-ROS or FIG-ROS were treated with ganetespib for 24 hr and activity of ROS was determined by Western blot.

[2] = test system: ROS (SLC34A2-ROS) in HCC78 cells; experiment: Western blot of ROS phosphorylation in HCC78 cells; assay type: cell-based, human; conditions: 24 hr, 250 nM (FIG. 1B)
Text: (§4) Cells, treated with compound for 24 hr, were lysed in RIPA buffer (CST, Danvers, Mass., USA) on ice and clarified by centrifugation. Equal amounts of proteins were resolved by SDS-PAGE and immunoblotted with indicated antibodies (CST). The antigen-antibody complex was visualized and quantitated using an Odyssey system (LI-COR, Lincoln, Nebr., USA).
as §3

CD74-ROS = experiment: Western blot of ROS phosphorylation in Ba/F3 cells expressing CD74-ROS; assay type: cell-based; conditions: 24 hr, 100 nM (FIG. 1D)
Text: as §4, §3

FIG-ROS = experiment: Western blot of ROS phosphorylation in Ba/F3 cells expressing FIG-ROS; assay type: cell-based; conditions: 24 hr, 100 nM (FIG. 1D)
Text: as §4, §3

CCDC6-RET = experiment: Western blot in TPC-1 cells (CCDC6-RET, ERK, PARP); assay type: cell-based, human; conditions: 24 hr (FIG. 2)
Description: as §1, §4
(§5) Recently, fusions of the RET kinase have also been detected in NSCLC. See, e.g., Fei Li et al, Cell Research (2012), 1-4. One such fusion, CCDC6-RET, was determined to be present in ˜1% of lung adenocarcinomas from never smokers. To investigate whether ganetespib modulates the activity and stability of RET fusions, CCDC6-RET expressing TPC-1 thyroid cancer cells were used as a model.

[3] = test system: CCDC6-RET expressing TPC-1 thyroid cancer cells; experiment: Cell viability in TPC-1 cells; assay type: cell-based, human; conditions: 72 hr (FIG. 2A, FIG. 7)
Description: as §1, §2, §5

[4] = test system: cancer cells driven by oncogenic ROS1 fusion; experiment: Viability of cancer cells driven by oncogenic ROS1 fusion (FIGS. 3-4); assay type: cell-based; conditions: FIG. 3, FIG. 4
Description: as §2

ROS1 fusion protein = experiment: Degradation of ROS1 fusion protein (FIG. 5); assay type: cell-based
Text: as §4

Structure (SMILES) | IC50 [1] [nM] | cells killed by single agent [1] | phosphorylation of ROS [2] | activity (phosphorylation) of CD74-ROS (CD74-ROS) | activity (phosphorylation) of FIG-ROS (FIG-ROS) | ERK activity (CCDC6-RET) | PARP cleavage (CCDC6-RET) | degradation of total and phosphorylated CCDC6-RET (CCDC6-RET) | cell death / viability of TPC-1 cells [3] | viability of cancer cells driven by oncogenic ROS1 fusion [4] | degradation of ROS1 fusion protein (ROS1 fusion protein)
CC(C)c1cc(-c2nnc(O)n2-c2ccc3c(ccn3C)c2)c(O)cc1O [ganetespib, 3-(2,4-DIHYDROXY-5- ISOPROPYL-PHENYL)-4-(1- METHYL-INDOL-5-YL)-5- HYDROXY-[1,2,4] TRIAZOLE (GANETESPIB)] | 17 | approximately 50% | significant dephosphorylation of ROS | effectively reduces the activity | effectively reduces the activity | deactivation of ERK | cleavage of the pro-apoptotic protein PARP | potently induced the degradation | resulting in cell death; also recorded: significantly inhibited the viability | inhibited viability; also recorded: significantly inhibited the viability of more cancer cells | leads to degradation of ROS1 fusion protein
C[C@@H](Oc1cc(-c2cnn(C3CCNCC3)c2)cnc1N)c1c(Cl)ccc(F)c1Cl [crizotinib, reference compound] | 1040 | approximately 50% | – | – | – | – | – | – | – | inhibited viability | –
